Source: the supplement of paper PMC10307832

How the values were obtained:
Assay in all cases: relative viability (nuclei count vs DMSO), 5 days (fraction); higher = more cells survive
Bemcentinib + Vorinostat = compound: Nc1nc(Nc2ccc3c(c2)CC[C@@H](N2CCCC2)CC3)nn1-c1cc2c(nn1)-c1ccccc1CCC2 [Bemcentinib] + O=C(CCCCCCC(=O)Nc1ccccc1)NO [Vorinostat] (partner 1 µM)
Outline: (§1)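 Values are medians from duplicate plates. Each reflects relative viability, defined as the nuclei count of treated wells over that of vehicle wells. Lung cancer cell lines in 1536-well plates were pin-tool dosed one day after seeding with one drug alone or with a fixed anchor-drug dose plus five library-drug doses (not always all listed) in √10 steps, then fixed, stained and imaged at 4× after 5 days.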

Bemcentinib + Crizotinib = compound: Nc1nc(Nc2ccc3c(c2)CC[C@@H](N2CCCC2)CC3)nn1-c1cc2c(nn1)-c1ccccc1CCC2 [Bemcentinib] + C[C@@H](Oc1cc(-c2cnn(C3CCNCC3)c2)cnc1N)c1c(Cl)ccc(F)c1Cl [Crizotinib] (partner 1 µM)
Outline: as §1

[1] = compound: CC1=CC=C(C=C1)C(=O)CN2C3=C(CCCC3)SC2=N [Pifithrin_alpha] + COc1cccc2cc(-c3nc([C@H]4CC[C@H](C(=O)O)CC4)n4ncnc(N)c34)[nH]c12 [OSI-027] (partner 0.5 µM)
Outline: as §1

Axitinib + Tozasertib = compound: CNC(=O)c1ccccc1Sc1ccc2c(/C=C/c3ccccn3)n[nH]c2c1 [Axitinib] + Cc1cc(Nc2cc(N3CCN(C)CC3)nc(Sc3ccc(NC(=O)C4CC4)cc3)n2)n[nH]1 [Tozasertib] (partner 0.1 µM)
Outline: as §1

Cell Line	relative viability (Bemcentinib + Vorinostat; first compound 0.04 µM)	relative viability (Bemcentinib + Vorinostat; first compound 0.1265 µM)	relative viability (Bemcentinib + Vorinostat; first compound 0.4 µM)	relative viability (Bemcentinib + Vorinostat; first compound 1.265 µM)	relative viability (Bemcentinib + Vorinostat; first compound 4 µM)	relative viability (Bemcentinib + Crizotinib; first compound 0.04 µM)	relative viability (Bemcentinib + Crizotinib; first compound 0.1265 µM)	relative viability (Bemcentinib + Crizotinib; first compound 0.4 µM)	relative viability (Bemcentinib + Crizotinib; first compound 1.265 µM)	relative viability (Bemcentinib + Crizotinib; first compound 4 µM)	relative viability ([1]; first compound 1 µM)	relative viability ([1]; first compound 3.162 µM)	relative viability ([1]; first compound 10 µM)	relative viability ([1]; first compound 31.62 µM)	relative viability ([1]; first compound 100 µM)	relative viability (Axitinib + Tozasertib; first compound 0.005 µM)	relative viability (Axitinib + Tozasertib; first compound 0.01581 µM)	relative viability (Axitinib + Tozasertib; first compound 0.05 µM)	relative viability (Axitinib + Tozasertib; first compound 0.1581 µM)	relative viability (Axitinib + Tozasertib; first compound 0.5 µM)
NCI-H1651	0.532	0.557	0.569	0.476	0.613	0.886	0.882	0.873	0.905	0.878	0.682	0.664	0.666	0.449	0.6	0.853	0.701	0.73	0.876	0.877
NCI-H661	0.774	0.778	0.849	0.789	0.838	0.878	0.947	0.852	0.998	1.02	0.691	0.707	0.678	0.514	0.579	0.351	0.363	0.363	0.359	0.371
NCI-H23	0.525	0.604	0.675	0.437	0.545	0.493	0.608	0.522	0.613	0.482	0.627	0.535	0.446		0.535	0.421	0.431	0.442	0.44	0.8
PC-14	0.681	0.696	0.979	0.83	0.664	0.838	0.937	0.879	0.896	1.01	0.822	0.889	0.827	0.464	0.605	0.6		0.553	0.558	0.758
H3255		0.755	0.772	0.784	0.772	0.867	0.938	0.914	0.878	0.888	0.552	0.608	0.504	0.521	0.572	0.721	0.642	0.589	0.541	1.2
NCI-H3122	0.548	1.07	1.11	1.06	0.983	0.257	0.157	0.262	0.31	0.293	1	1.26	1.01		0.786	0.38	0.426	0.346	0.415	0.566
NCI-H2009	0.671	0.783	0.71	0.723	0.722	1.01	1.08	1.11	0.951	1.05	0.601	0.663	0.62	0.431	0.456	0.76	0.815	0.708	0.786	1.08
HCC-827	0.79	0.858	0.783	0.361	0.789	0.971	0.867	0.914	1	0.939	0.807	0.912	0.823	0.713	0.774	0.443	0.417	0.424	0.466	0.449
LXF-289	0.658	0.799	0.662	0.796	0.763	0.88	0.833	0.817	0.791	0.877	0.53	0.766	0.737	0.68	0.729	0.253	0.175	0.219	0.253	0.317
NCI-H596	0.582	0.449	0.721	0.391	0.674	0.969	1.01	1.08	1.1	1.05	0.809	0.65	0.557	0.588	0.621	1.05	0.938	0.877	0.893	0.935
NCI-H727	1.02	1.14	1.18	0.858	1.2	0.666	1.08	0.743	0.801	0.817	0.394	0.577	0.579		0.404	0.543	0.628	0.625	0.674	0.746
NCI-H1993	0.739	0.716	1.07	0.981	1.05	0.913	0.966	0.876	1.03	1.1	0.509	0.537	0.571	0.65	0.59	0.617	0.59	0.592	0.607	0.641
NCI-H1437	0.857	0.914	0.97	0.955	0.889	0.931	1.04	0.972	0.984	0.967	1.06	0.903	0.905	0.65	0.41	0.403	0.465	0.406	0.459	0.511
NCI-H2023	0.77	0.783	0.619	0.748	0.66	0.648	0.653	0.723	0.6	0.599	0.305	0.3	0.204		0.213	0.368	0.395	0.38	0.483	0.604
LK-2	0.497	0.253	0.171	0.281	0.365	0.217	0.186	0.252	0.224	0.234	0.192	0.213	0.185	0.17	0.169	0.176	0.161	0.198	0.162	0.174
HOP-62	0.606	0.738	0.79	0.672	0.623	1.01	1.08		0.734	1.03	0.836	0.811	0.955	0.635	0.921	0.38	0.414	0.343	0.44	0.577
